The results in this text go back to patent US11787769B2 (priority 2019, dated 2023).

Like-named read-outs stand apart in the source and are kept apart here.

What all share (test): microbe, parasite or virus in culture
The subject of test [1] is influenza A virus (HA of H5N1, Goose/Qinghai/59/05). The class given is cell-based. As to conditions: for inhibition at 12.5 µM: H5N1, A549, 12.5 μM, read-out: H5N1 pseudotype assay % inhibition at 12.5 μM.
Test [2] relates to PR8-PB2-Gluc, influenza A/Puerto Rico/8/1934 (PR8) H1N1 virus. In kind it is cell-based. As to conditions: read-out: EC50 (nM), antiviral activity in the infectious IAV.
Another test concerns PR8-NS1-Gluc virus. The class given is cell-based, influenza A PR8.
Where [3] appears, read: Influenza A virus, H5N1, A549, read-out: H5N1 pseudotype assay EC50 (μM).
[4] abbreviates: read-out: H5N1 pseudotype assay EC50.
Where [5] appears, read: Influenza A virus, PR8, MDCK, 48 h.

The term inhibition denotes the relative decrease from the control value, in per cent. By EC50 is commonly meant the concentration at which the effect is half-maximal. With `CC(C)N1CCC(NC(=O)c2c(Cl)cccc2Cl)CC1` [Compound 1, 2,6-Dichloro-N-(1-isopropylpiperidin-4-yl)benzamide], the inhibition at 12.5 µM in test [1] (Influenza A virus) is 90%. Besides, the EC50 turned out to be 3.04 ± 1.13 µM in test [1] (setting [3]) and 272 ± 37 nM in test [2] (Influenza A virus, MDCK).
`CC(C)N1CCC(NC(=O)c2c(Cl)cccc2C(F)(F)F)CC1` [Compound 2, 2-Chloro-N-(1-isopropylpiperidin-4-yl)-6-(trifluoromethyl)benzamide]: the inhibition at 12.5 µM in test [1] (Influenza A virus) stood at 85%. Also, the EC50 in test [1] (setting [3]) came out at 5.62 ± 2.16 µM; in test [2] (Influenza A virus, MDCK), 587 ± 140 nM.
Turning to `CC(C)N1CCC(NC(=O)c2ccccc2C(F)(F)F)CC1` [Compound 3, N-(1-Isopropylpiperidin-4-yl)-2-(trifluoromethyl)benzamide], the inhibition at 12.5 µM in test [1] (Influenza A virus) was 31%.
As for `CC(C)N1CCC(NC(=O)c2ccc([N+](=O)[O-])cc2Cl)CC1` [Compound 4, 2-Chloro-N-(1-isopropylpiperidin-4-yl)-4-nitrobenzamide], the inhibition at 12.5 µM in test [1] (Influenza A virus) came to 97%. Besides, the EC50 in test [1] (setting [3]) was determined as 0.72 ± 0.09 µM; in test [2] (Influenza A virus, MDCK), 211 ± 43 nM.
The like results for `CC(C)N1CCC(NC(=O)c2ccc(C(F)(F)F)cc2Cl)CC1` [Compound 5, 2-Chloro-N-(1-isopropylpiperidin-4-yl)-4-(trifluoromethyl)benzamide] were, in that order, 99%, 0.36 ± 0.05 µM and 380 ± 182 nM.
Turning to `CC(C)N1CCC(NC(=O)c2ncc(Cl)cc2Cl)CC1` [Compound 6, 3,5-Dichloro-N-(1-isopropylpiperidin-4-yl)picolinamide], the inhibition at 12.5 µM in test [1] (Influenza A virus) came to 39%.
Take `CC(C)N1CCC(NC(=O)c2ncc(C(F)(F)F)cc2Cl)CC1` [Compound 7, 3-Chloro-N-(1-isopropylpiperidin-4-yl)-5-(trifluoromethyl)picolinamide]: the inhibition at 12.5 µM in test [1] (Influenza A virus) was 76%.
In the case of `CC(C)N1CCC(NC(=O)c2ncccc2Cl)CC1` [Compound 8, 3-Chloro-N-(1-isopropylpiperidin-4-yl)picolinamide], in test [1] (Influenza A virus), the inhibition at 12.5 µM is 40%.
With `CC(C)N1CCC(N(C)C(=O)c2c(Cl)cccc2Cl)CC1` [Compound 9, 2,6-Dichloro-N-(1-isopropylpiperidin-4-yl)-N-methylbenzamide], the inhibition at 12.5 µM in test [1] (Influenza A virus) stood at 91%. Also, the EC50 in test [1] (setting [3]) is 4.45 µM; in test [2] (Influenza A virus, MDCK) it was 724 ± 36 nM.
For the molecule `CC(C)N1CCC(N(Cc2ccccc2)C(=O)c2c(Cl)cccc2Cl)CC1` [Compound 10, N-Benzyl-2,6-dichloro-N-(1-isopropylpiperidin-4-yl)benzamide], the “H5N1 pseudotype assay % inhibition at 12.5 μM” value in test [1] (12.5 μM) stood at 64%. For the same molecule, the inhibition at 12.5 µM in test [1] (Influenza A virus) is 67%.
As for `O=C(NC1CCN(C2CC2)CC1)c1c(Cl)cccc1Cl` [Compound 11, 2,6-Dichloro-N-(1-cyclopropylpiperidin-4-yl)benzamide], the inhibition at 12.5 µM in test [1] (Influenza A virus) came to 33%.
For the molecule `O=C(NC1CCN(C2CCC2)CC1)c1c(Cl)cccc1Cl` [Compound 12, 2,6-Dichloro-N-(1-cyclobutylpiperidin-4-yl)benzamide], in test [1] (Influenza A virus), the inhibition at 12.5 µM was 76%.
Turning to `CC(C)(C)N1CCC(NC(=O)c2c(Cl)cccc2Cl)CC1` [Compound 13, N-(1-(tert-Butyl)piperidin-4-yl)-2,6-dichlorobenzamide], the inhibition at 12.5 µM in test [1] (Influenza A virus) is 99%. The EC50 in test [1] (setting [3]) is 0.51 ± 0.04 µM; in test [2] (Influenza A virus, MDCK), 113 ± 18 nM.
Take `CC(C)CN1CCC(NC(=O)c2c(Cl)cccc2Cl)CC1` [Compound 14, 2,6-Dichloro-N-(1-isobutylpiperidin-4-yl)benzamide]: in test [1] (Influenza A virus), the inhibition at 12.5 µM came to 89%. The EC50 in test [1] (setting [3]) was 2.15 ± 0.64 µM; in test [2] (Influenza A virus, MDCK) it was 852 ± 79 nM.
For the molecule `O=C(NC1CCN(C2COC2)CC1)c1c(Cl)cccc1Cl` [Compound 15, 2,6-Dichloro-N-(1-(oxetan-3-yl)piperidin-4-yl)benzamide], the inhibition at 12.5 µM in test [1] (Influenza A virus) turned out to be 7%.
On the same count and under the same terms, with `CC(C)CN1CCC(NC(=O)c2ccc(C(F)(F)F)cc2Cl)CC1` [Compound 17, 2-Chloro-N-(1-isobutylpiperidin-4-yl)-4-(trifluoromethyl)benzamide] the figure was 73%.
As for `O=C(NC1CCN(C2CCCCC2)CC1)c1ccc(C(F)(F)F)cc1Cl` [Compound 18, 2-Chloro-N-(1-cyclohexylpiperidin-4-yl)-4-(trifluoromethyl)benzamide], the inhibition at 12.5 µM in test [1] (Influenza A virus) was 98%. The EC50 in test [1] (setting [3]) turned out to be 0.91 ± 0.25 µM; in test [2] (Influenza A virus, MDCK), 505 ± 174 nM.
With `CC(C)N1CCC(NS(=O)(=O)c2ccc(Cl)cc2Cl)CC1` [Compound 19, 2,4-Dichloro-N-(1-isopropylpiperidin-4-yl)benzenesulfonamide], the inhibition at 12.5 µM in test [1] (Influenza A virus) was 1%.
`CC(C)N1CCCC(NC(=O)c2c(Cl)cccc2Cl)C1` (centres unmarked) [Compound 20, 2,6-Dichloro-N-(1-isopropylpiperidin-3-yl)benzamide]: in test [1] (Influenza A virus), the inhibition at 12.5 µM amounted to 14%.
Turning to `CC(C)N1CCC(CNC(=O)c2c(Cl)cccc2Cl)CC1` [Compound 21, 2,6-Dichloro-N-((1-isopropylpiperidin-4-yl)methyl)benzamide], in test [1] (Influenza A virus), the inhibition at 12.5 µM turned out to be 23%.
Still for that read-out and setting: with `CC(C)N1CCC(NC(=O)c2c(Cl)cccc2Cl)C1` (centres unmarked) [Compound 22, 2,6-Dichloro-N-(1-isopropylpyrrolidin-3-yl)benzamide] the figure was 11%.
`CC(C)N1CCCC(NC(=O)c2c(Cl)cccc2Cl)CC1` (centres unmarked) [Compound 23, 2,6-Dichloro-N-(1-isopropylazepan-4-yl)benzamide]: the inhibition at 12.5 µM in test [1] (Influenza A virus) came to 71%.
Same read-out and setting: with `CC(C)N1CC2C(C1)C2NC(=O)c1c(Cl)cccc1Cl` (centres unmarked) [Compound 24, 2,6-Dichloro-N-(3-isopropyl-3-azabicyclo[3. 1.0]hexan-6-yl)benzamide] the figure was 61%.
`CC(C)N1CCN(C(=O)c2c(Cl)cccc2Cl)CC1` [Compound 25, (2,6-Dichlorophenyl)-(4-isopropylpiperazin-l-yl)methanone]: the “H5N1 pseudotype assay % inhibition at 12.5 μM” value in test [1] was found to be 4%.
`CC(C)N1CCC2(CC1)OCCN2C(=O)c1c(Cl)cccc1Cl` [Compound 26, (2,6-Dichlorophenyl)-(8-isopropyl-1-oxa-4,8-diazaspiro[4.5]decan-4-yl)methanone]: the inhibition at 12.5 µM in test [1] (Influenza A virus) is 19%.
Regarding `CC(C)N1CCC(C)(NC(=O)c2c(Cl)cccc2Cl)CC1` [Compound 27, 2,6-Dichloro-N-(1-isopropyl-4-methylpiperidin-4-yl)benzamide], the inhibition at 12.5 µM in test [1] (Influenza A virus) amounted to 75%.
For the molecule `CO[C@H]1CN(C(C)C)CC[C@H]1NC(=O)c1c(Cl)cccc1Cl` [Compound 28, 2,6-Dichloro-N-((3S,4R)-1-isopropyl-3-methoxypiperidin-4-yl)benzamide], in test [1] (Influenza A virus), the inhibition at 12.5 µM was 64%.
On to `CC(C)N1CC[C@H](NC(=O)c2c(Cl)cccc2Cl)[C@@H](F)C1` [Compound 29, 2,6-Dichloro-N-((3S,45)-3-fluoro-1-isopropylpiperidin-4-yl)benzamide], for which the “H5N1 pseudotype assay % inhibition at 12.5 μM” value in test [1] (12.5 μM) stood at 87%. In addition, the EC50 in test [1] (setting [4]) worked out at 1.81 ± 0.45 µM; in test [2], 885 ± 50 nM.
For `CC(C)N1CCC(NC(=O)c2c(Cl)cccc2Cl)C(F)(F)C1` (centres unmarked) [Compound 30, 2,6-Dichloro-N-(3,3-difluoro-1-isopropylpiperidin-4-yl)benzamide], the inhibition at 12.5 µM in test [1] (Influenza A virus) was 77%.
On to `CC(C)N1CC[C@H](NC(=O)c2ccc(C(F)(F)F)cc2Cl)[C@@H](F)C1` [Compound 31, 2-Chloro-N-((3S,45)-3-fluoro-1-isopropylpiperidin-4-yl)-4-(trifluoromethyl)benzamide], for which the “H5N1 pseudotype assay % inhibition at 12.5 μM” value in test [1] (12.5 μM) is reported as 93%. Moreover, the EC50 in test [1] (setting [4]) was found to be 1.16 ± 0.67 µM; in test [2], 324 ± 105 nM.
On the same counts, the results for `CC(C)N1CC[C@H](NC(=O)c2ccc(C(F)(F)F)cc2Cl)[C@H](F)C1` [Compound 32, 2-Chloro-N-((3R,45)-3-fluoro-1-isopropylpiperidin-4-yl)-4-(trifluoromethyl)benzamide] are 99%, 0.63 ± 0.48 µM and 263 ± 33 nM.
Regarding `CC(C)N1CC[C@@H](NC(=O)c2ccc(C(F)(F)F)cc2Cl)[C@H](F)C1` [Compound 33, 2-Chloro-N-((3R,4R)-3-fluoro-1-isopropylpiperidin-4-yl)-4-(trifluoromethyl)benzamide], in test [1] (Influenza A virus), the inhibition at 12.5 µM stood at 87%. In addition, the EC50 in test [1] (setting [3]) amounted to 2.93 ± 0.3 µM; in test [2] (Influenza A virus, MDCK) it was 989 ± 323 nM.
On the same counts, the results for `CC(C)N1CC[C@@H](NC(=O)c2ccc(C(F)(F)F)cc2Cl)[C@@H](F)C1` [Compound 34, 2-Chloro-N-((3S,4R)-3-fluoro-1-isopropylpiperidin-4-yl)-4-(trifluoromethyl)benzamide] are 99%, 0.67 ± 0.2 µM and 195 ± 49 nM.
The EC30 is the point of the concentration-response curve where the effect stands at 30%. Higher therefore signals a need for much substance. One may read the EC70 as the concentration at which the effect reaches the 70% level. A high value points to weaker potency. By EC80 is commonly meant the point of the concentration-response curve where the effect stands at 80%. One may read the EC90 as the concentration at which the effect reaches the 90% level. Low readings indicate greater potency, high ones weaker potency. Take `CCC(CC)O[C@@H]1C=C(C(=O)O)C[C@H](N)[C@H]1NC(C)=O` [Oseltamivir carboxylate, reference compound]: the EC50 in test [2] (Influenza A virus, MDCK) was 181 ± 69 nM. In the test with PR8-NS1-Gluc virus, the “EC30” value was found to be 160 nM, the “EC40” value is listed as 229 nM, the “EC60” value was 441 nM and the “EC70” value stood at 629 nM. Also, the “EC80” value in the test with PR8-NS1-Gluc virus is listed as 972 nM. In the test on PR8-NS1-Gluc virus (setting [5]), this molecule had an EC50 of 318 nM and an EC90 of 1870 nM.
